Test results published in US9676715B2, “Bis-indolic derivatives, a process for preparing the same and their uses as a drug” (UNIVERSITE JOSEPH FOURIER, priority 2011, dated 2017).
Values after ≈ are worked out from the molar mass of the structure shown.

How the values were obtained:
[1] = tested on: S. aureus ATCC 33592 (MRSA); test: MIC, microdilution method (9.1); format: cell-based, Staphylococcus aureus; conditions: Staphylococcus aureus, read after 18 h, read-out: MIC
In short: (§1)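 Broth microdilution per CLSI M07-A8 in Mueller Hinton broth, final inoculum 5×10^5 CFU/ml. Indolic compounds tested as two-fold serial dilutions, 0.50-128 mg/L final. Plates incubated at 37° C. in ambient air; fastidious species received 10% sheep blood and 5% CO2.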

[2] = tested on: S. aureus CIP 103428; test: MIC, microdilution method (9.1); format: cell-based, Staphylococcus aureus; conditions: Staphylococcus aureus, CIP103428, read after 18 h, read-out: MIC
In short: as §1

[3] = tested on: S. aureus ATCC 6538; test: MIC, microdilution method (9.1); format: cell-based, Staphylococcus aureus; conditions: Staphylococcus aureus, ATCC6538, read after 18 h, read-out: MIC
In short: as §1

[4] = tested on: S. aureus ATCC 106414 (VISA); test: MIC, microdilution method (9.1); format: cell-based, Staphylococcus aureus; conditions: Staphylococcus aureus, read after 18 h, read-out: MIC
In short: as §1

[5] = tested on: S. aureus CIP 65.25 (MRSA); test: MIC, microdilution method (9.1); format: cell-based, Staphylococcus aureus; conditions: Staphylococcus aureus, read after 18 h, read-out: MIC
In short: as §1

[6] = tested on: S. aureus ATCC 25923; test: MIC, microdilution method (9.1); format: cell-based, Staphylococcus aureus; conditions: Staphylococcus aureus, ATCC25923, read after 18 h, read-out: MIC
In short: as §1

[7] = tested on: S. aureus ATCC 29213; test: MIC, microdilution method (9.1); format: cell-based, Staphylococcus aureus; conditions: Staphylococcus aureus, ATCC29213, read after 18 h, read-out: MIC
In short: as §1

[8] = tested on: S. aureus SA-1199B; test: MIC, microdilution method (9.1); format: cell-based, Staphylococcus aureus; conditions: Staphylococcus aureus, SA1199B, 18 h
In short: as §1

[9] = tested on: S. aureus CIP 65.6; test: MIC, microdilution method (9.1); format: cell-based, Staphylococcus aureus; conditions: Staphylococcus aureus, CIP65, read after 18 h, read-out: MIC
In short: as §1

[10] = tested on: S. aureus ATCC 9144; test: MIC, microdilution method (9.1); format: cell-based, Staphylococcus aureus; conditions: Staphylococcus aureus, ATCC9144, read after 18 h, read-out: MIC
In short: as §1

[11] = tested on: HCT116 (human colon tumor); test: In vitro cytotoxicity; format: cell-based; conditions: read-out: % of cellular growth inhibition; for inhibition at 10 µM: HCT-116, 10^−5 M; for inhibition at 1 µM: HCT-116, 10^−6 M
Protocol: (§2) In vitro cytotoxicity was assayed on three cell lines—KB (human mouth carcinoma), MCR5 (human lung fibroblast) and HCT116 (human colon tumor). Results are presented in table IV as % of cellular growth inhibition in presence of 10^−5 M and 10^−6 M of the tested bis-indolic derivatives.

[12] = tested on: KB (human mouth carcinoma); test: In vitro cytotoxicity; format: cell-based; conditions: read-out: % of cellular growth inhibition; for inhibition at 10 µM: 10^−5 M; for inhibition at 1 µM: 10^−6 M
Protocol: as §2

[13] = tested on: MRC5 (human lung fibroblast); test: In vitro cytotoxicity; format: cell-based; conditions: read-out: % of cellular growth inhibition; for inhibition at 10 µM: 10^−5 M; for inhibition at 1 µM: 10^−6 M
Protocol: as §2

[14] = tested on: S. epidermidis ATCC 12228; test: MIC, microdilution method (9.1); format: cell-based, Staphylococcus epidermidis; conditions: Staphylococcus epidermidis, ATCC12228, read after 18 h, read-out: MIC
In short: as §1

[15] = tested on: S. epidermidis CIP 81.55; test: MIC, microdilution method (9.1); format: cell-based, Staphylococcus epidermidis; conditions: Staphylococcus epidermidis, CIP81, read after 18 h, read-out: MIC
In short: as §1

[16] = tested on: S. epidermidis CIP 103627; test: MIC, microdilution method (9.1); format: cell-based, Staphylococcus epidermidis; conditions: Staphylococcus epidermidis, CIP103627, read after 18 h, read-out: MIC
In short: as §1

[17] = tested on: Pseudomonas aeruginosa CIP 5933; test: MIC, microdilution method (9.1); format: cell-based; conditions: CIP5933, 18 h, read-out: MIC
In short: as §1

[18] = tested on: Listeria innocua CIP 80.11; test: MIC, microdilution method (9.1); format: cell-based; conditions: CIP80, 18 h, read-out: MIC
In short: as §1

[19] = tested on: Serratia marcescens CIP 103551; test: MIC, microdilution method (9.1); format: cell-based; conditions: CIP103551, 18 h
In short: as §1

[20] = tested on: Escherichia coli ATCC 25922; test: MIC, microdilution method (9.1); format: cell-based; conditions: ATCC25922, 18 h
In short: as §1

[21] = tested on: Bacillus subtilis CIP 5262; test: MIC, microdilution method (9.1); format: cell-based; conditions: CIP5262, 18 h, read-out: MIC
In short: as §1

[22] = tested on: Haemophilus influenzae ATCC 49766; test: MIC, microdilution method (9.1); format: cell-based; conditions: ATCC49766; Haemophilus influenzae ATCC 49766; 10% sheep blood, 5% CO2; 18 h; read-out: MIC
In short: as §1

[23] = tested on: Klebsiella pneumoniae API ATCC 35657; test: MIC, microdilution method (9.1); format: cell-based; conditions: ATCC35657, 18 h, read-out: MIC
In short: as §1

[24] = tested on: S. pneumoniae ATCC 49619; test: MIC, microdilution method (9.1); format: cell-based; conditions: Streptococcus pneumoniae, ATCC49619, 10% sheep blood, 5% CO2, 18 h
In short: as §1

[25] = tested on: Enterobacter cloacae ATCC13047; test: MIC, microdilution method (9.1); format: cell-based; conditions: 18 h
In short: as §1

[26] = tested on: Acinetobacter baumanii ATCC 19606; test: MIC, microdilution method (9.1); format: cell-based; conditions: Acinetobacter baumannii, ATCC19606, 18 h, read-out: MIC
In short: as §1

[27] = tested on: E. faecium CIP 54.32; test: MIC, microdilution method (9.1); format: cell-based, Enterococcus faecium; conditions: Enterococcus faecium, CIP54, 18 h, read-out: MIC
In short: as §1

[28] = tested on: S. mitis CIP 103335; test: MIC, microdilution method (9.1); format: cell-based, Streptococcus mitis; conditions: Streptococcus mitis, CIP103335, 18 h, read-out: MIC
In short: as §1

[29] = tested on: S. pyogenes (group A) CIP 104226; test: MIC, microdilution method (9.1); format: cell-based, Streptococcus pyogenes; conditions: Streptococcus pyogenes, CIP104226, 18 h, read-out: MIC
In short: as §1

[30] = tested on: S. pneumoniae ATCC 6303; test: MIC, microdilution method (9.1); format: cell-based, Streptococcus pneumoniae; conditions: Streptococcus pneumoniae, ATCC6303, 10% sheep blood, 5% CO2, 18 h, read-out: MIC
In short: as §1

[31] = tested on: E. faecalis ATCC 29212; test: MIC, microdilution method (9.1); format: cell-based, Enterococcus faecalis; conditions: Enterococcus faecalis, ATCC29212, 18 h, read-out: MIC
In short: as §1

[32] = tested on: HCT116 (human colon tumor); test: In vitro cytotoxicity; format: cell-based; conditions: HCT-116, HCT116, from 100 μM to 0.005 μM in DMSO, duplicate
[33] = tested on: S. agalactiae (group B) ATCC 12400; test: MIC, microdilution method (9.1); format: cell-based, Streptococcus agalactiae; conditions: Streptococcus agalactiae, ATCC12400, 18 h, read-out: MIC
In short: as §1

SMILES | MIC [1] | MIC [2] | MIC [3] | MIC [4] | MIC [5] | MIC [6] | MIC [7] | MIC [8] | MIC [9] | MIC [10] | inhibition at 10 µM [11] | inhibition at 1 µM [11] | inhibition at 10 µM [12] | inhibition at 1 µM [12] | inhibition at 10 µM [13] | inhibition at 1 µM [13] | MIC [14] | MIC [15] | MIC [16] | melting point | also measured
COC(=O)C(NC(=O)c1c[nH]c2ccc(Br)cc12)c1c[nH]c2ccc(Br)cc12 (stereo not drawn) [Compound 11, Methyl 2-(5-bromo-1H-indol-3-yl)-2-(5-bromo-1H-indole-3-carboxamido)acetate] | 4 µg/mL (≈ 7.92 µM) | 4 µg/mL (≈ 7.92 µM) | 4 µg/mL (≈ 7.92 µM) | 4 µg/mL (≈ 7.92 µM) | 4 µg/mL (≈ 7.92 µM) | 4 µg/mL (≈ 7.92 µM) | 4 µg/mL (≈ 7.92 µM) | 4 µg/mL (≈ 7.92 µM) | 4 µg/mL (≈ 7.92 µM) | 4 µg/mL (≈ 7.92 µM) | 51 ± 5% | 0% | 51 ± 1% | 0% | 28 ± 9% | 0% | 4 µg/mL (≈ 7.92 µM) | 4 µg/mL (≈ 7.92 µM) | 4 µg/mL (≈ 7.92 µM) | 126 °C | 
CC(C)(C)OC(=O)NCC(NC(=O)c1c[nH]c2ccc(Br)cc12)c1c[nH]c2cc(Br)ccc12 (stereo not drawn) [Compound 3h, tert-Butyl (2-(6-bromo-1H-indol-3-yl)-2-(5-bromo-1H-indolyl-3-carboxamido)ethyl)carbamate] | 2 µg/mL (≈ 3.47 µM) | 2 µg/mL (≈ 3.47 µM) | 1 µg/mL (≈ 1.74 µM) | 1 µg/mL (≈ 1.74 µM) | 1 µg/mL (≈ 1.74 µM) | 1 µg/mL (≈ 1.74 µM) | 1 µg/mL (≈ 1.74 µM) | 2 µg/mL (≈ 3.47 µM) | 2 µg/mL (≈ 3.47 µM) | 1 µg/mL (≈ 1.74 µM) | 100 ± 3% | 0% | 100 ± 1% | 0% | 92 ± 1% | 0% | 1 µg/mL (≈ 1.74 µM) | 1 µg/mL (≈ 1.74 µM) | 2 µg/mL (≈ 3.47 µM) |  | MIC [17]: > 128 µg/mL; MIC [18]: 32 µg/mL (≈ 55.5 µM); MIC [19]: > 128 µg/mL; MIC [20]: > 128 µg/mL; MIC [21]: 32 µg/mL (≈ 55.5 µM); MIC [22]: 16 µg/mL (≈ 27.8 µM); MIC [23]: > 128 µg/mL; MIC [24]: 32 µg/mL (≈ 55.5 µM); MIC [25]: > 128 µg/mL; MIC [26]: > 128 µg/mL; MIC [27]: 32 µg/mL (≈ 55.5 µM); MIC [28]: 32 µg/mL (≈ 55.5 µM); MIC [29]: 32 µg/mL (≈ 55.5 µM); MIC [30]: 32 µg/mL (≈ 55.5 µM); MIC [31]: > 128 µg/mL; IC50 ([32]; first value): 3.33 µM; IC50 ([32]; second value): 4.11 µM; MIC [33]: 32 µg/mL (≈ 55.5 µM)
O=C(NC(CO)c1c[nH]c2ccc(Br)cc12)c1c[nH]c2ccc(Br)cc12 (stereo not drawn) [Compound 13, 5-Bromo-N-(1-(5-bromo-1H-indol-3-yl)-2-hydroxyethyl)-1H-indole-3-carboxamide] | 4 µg/mL (≈ 8.38 µM) | 4 µg/mL (≈ 8.38 µM) | 4 µg/mL (≈ 8.38 µM) | 4 µg/mL (≈ 8.38 µM) | 4 µg/mL (≈ 8.38 µM) | 4 µg/mL (≈ 8.38 µM) | 4 µg/mL (≈ 8.38 µM) | 8 µg/mL (≈ 16.8 µM) | 4 µg/mL (≈ 8.38 µM) | 4 µg/mL (≈ 8.38 µM) | 12 ± 5% | 0% | 1 ± 4% | 0% | 6 ± 1% | 0% | 4 µg/mL (≈ 8.38 µM) | 4 µg/mL (≈ 8.38 µM) | 4 µg/mL (≈ 8.38 µM) | 155 °C | 
CC(C)(C)OC(=O)NCC(NC(=O)c1c[nH]c2ccc(Cl)cc12)c1c[nH]c2ccc(Cl)cc12 (stereo not drawn) [Compound 6a, tert-Butyl 2-(5-chloro-1H-indol-3-yl)-2-(5-chloro-1H-indole-3-carboxamido)ethylcarbamate] | 4 µg/mL (≈ 8.21 µM) | 4 µg/mL (≈ 8.21 µM) | 4 µg/mL (≈ 8.21 µM) | 4 µg/mL (≈ 8.21 µM) | 4 µg/mL (≈ 8.21 µM) | 4 µg/mL (≈ 8.21 µM) | ≤ 2 µg/mL | 4 µg/mL (≈ 8.21 µM) | 4 µg/mL (≈ 8.21 µM) | 4 µg/mL (≈ 8.21 µM) | 80 ± 9% | 0% | 87 ± 6% | 4% | 82 ± 4% | 0% | 4 µg/mL (≈ 8.21 µM) | 4 µg/mL (≈ 8.21 µM) | 4 µg/mL (≈ 8.21 µM) |  | MIC [17]: > 128 µg/mL; MIC [18]: > 128 µg/mL; MIC [19]: > 128 µg/mL; MIC [20]: > 128 µg/mL; MIC [21]: 64 µg/mL (≈ 131 µM); MIC [22]: > 128 µg/mL; MIC [23]: > 128 µg/mL; MIC [24]: 64 µg/mL (≈ 131 µM); MIC [25]: > 128 µg/mL; MIC [26]: > 128 µg/mL; MIC [27]: > 128 µg/mL; MIC [28]: 64 µg/mL (≈ 131 µM); MIC [29]: 64 µg/mL (≈ 131 µM); MIC [30]: 32 µg/mL (≈ 65.7 µM); MIC [31]: > 128 µg/mL; IC50 ([32]; first value): 4.35 µM; IC50 ([32]; second value): 3.79 µM; MIC [33]: 64 µg/mL (≈ 131 µM)
